One experiment has as its target T1, hTRPV3 single channel (Homo sapiens, UniProt Q8NET8).
T1 construct: expressed in transfected cells; host or cells: HEK293
T1 sequence (Q8NET8 1-790): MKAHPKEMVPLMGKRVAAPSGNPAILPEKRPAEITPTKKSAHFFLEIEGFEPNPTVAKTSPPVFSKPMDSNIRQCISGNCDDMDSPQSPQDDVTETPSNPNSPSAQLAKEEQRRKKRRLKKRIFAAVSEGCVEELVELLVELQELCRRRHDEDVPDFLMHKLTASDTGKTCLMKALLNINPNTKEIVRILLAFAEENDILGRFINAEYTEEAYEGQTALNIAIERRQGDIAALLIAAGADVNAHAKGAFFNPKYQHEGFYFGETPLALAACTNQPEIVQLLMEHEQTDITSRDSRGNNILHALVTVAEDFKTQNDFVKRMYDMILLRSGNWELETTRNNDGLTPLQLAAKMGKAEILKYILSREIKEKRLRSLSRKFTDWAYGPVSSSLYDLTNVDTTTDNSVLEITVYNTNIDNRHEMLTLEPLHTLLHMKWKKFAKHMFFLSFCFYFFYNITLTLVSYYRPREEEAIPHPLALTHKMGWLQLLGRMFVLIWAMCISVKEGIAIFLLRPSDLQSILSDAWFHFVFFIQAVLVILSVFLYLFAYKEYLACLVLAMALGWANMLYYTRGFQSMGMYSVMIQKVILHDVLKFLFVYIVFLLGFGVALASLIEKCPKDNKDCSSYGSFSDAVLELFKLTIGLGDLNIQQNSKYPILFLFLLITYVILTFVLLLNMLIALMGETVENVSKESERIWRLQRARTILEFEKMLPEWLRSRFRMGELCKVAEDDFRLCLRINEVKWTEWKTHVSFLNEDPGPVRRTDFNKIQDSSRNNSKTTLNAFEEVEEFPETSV
Kind of experiment: Inside-out single-channel recordings of TRPV3 in HEK293 cells. Format: cell-based. Particulars: agonist 2-APB 30 μmol/L alone, −60 mV. An excerpt: For single-channel recordings, borosilicate glass pipettes were pulled from borosilicate glass capillaries and fire-polished to the resistance between 6 and 10 MΩ using a DMZ universal electrode puller (Zeitz-Instruments, GmbH). For inside-out single-channel recordings, both pipette and external solutions contained (in mM): 130 NaCl, three HEPES, and 0.2 EDTA (pH = 7.4). Membrane potential was clamped at −60 mV and currents were digitized at 10 kHz and filtered at 2 kHz.

For another experiment, the system named is TRPM8. Set-up: method as in PMID 33876725. Particulars: ref [18]; read-out: IC50 TRPM8 currents; cited from earlier work.
The subject of the next experiment is TRPV3. The following applies: cited from earlier work.
The subject of a further experiment is TRPV2. Also on record: method as in PMID 33876725. Particulars: ref [18]; read-out: IC50 TRPV2 currents; cited from earlier work.
In the next experiment the test system is TRPA1. Also on record: method as in PMID 30377214. Particulars: ref [17]; cited from earlier work.
A further experiment concerns TRPV4. Also on record: method as in PMID 30108138, PMID 27160770. Particulars: ref [16], [42]; cited from earlier work.
The test system of another experiment is TRPV1. Also on record: method as in PMID 30108138, PMID 27160770. The following applies: ref [16], [42]; cited from earlier work.

What is called IC50 is the concentration needed to halve the response being measured.

Where two headings read alike, the source gives them in different places.

As for `NCCOB(c1ccccc1)c1ccccc1` [2-APB, 2-aminoethoxydiphenyl borate], on hTRPV3 single channel, the single-channel conductance result is recorded as “about 170.9 ± 4.8 pS” and the single-channel open probability worked out at 0.75.
In the case of `CCCCOc1ccc(C(=O)CCN2CCCCC2)cc1` [dyclonine], the IC50 with TRPM8 was 82 µM; with TRPV3 (ref [18], read-out: IC50 TRPV3 currents), around 3.2 µM; in the experiment on TRPV2 it was 31 µM.
As to forsythoside B, in the experiment on TRPA1, the “inhibition of TRPA1 currents” value was “weak inhibition”. For the same compound, in the experiment with TRPV3 (ref [17], read-out: IC50 TRPV3 currents), the IC50 is around 6.7 µM.
`COc1ccc2ccc(=O)oc2c1CC=C(C)C` [osthole]: the “inhibition of TRPV4” value in the experiment with TRPV4 is “weak inhibition”. In addition, the IC50 with TRPV3 (ref [16], [42], read-out: IC50 TRPV3) was around 37 µM. Besides, the “inhibition of TRPV1” value in the experiment with TRPV1 is “weak inhibition”.

The values above are taken from article PMC10828444, “Selective inhibition of overactive warmth-sensitive Ca^2+-permeable TRPV3 channels by antispasmodic agent flopropione for alleviation of skin inflammation” (The Journal of Biological Chemistry, 2023).
